# In patent US5578445A, “In vitro method of evaluating the effects of a substance” (priority 1991, dated 1996):
# System: MCF7
# Test: Proliferation, amount of ATP after 6 days, MCF7
structure (smiles),measurement,setting,value
O=C(c1ccc(OCCN2CCCC2)cc1)c1c(-c2ccc(O)cc2)sc2cc(O)ccc12 [LY 117018],activity at 1 µM,"Homo sapiens, MCF7, 144 h, read-out: relative amount of ATP (no hormone added = 1), MCF7, + 10^-6 M LY 117018, -E2, 6 days",27%
same,activity at 0.1 µM,"Homo sapiens, MCF7, 144 h, read-out: relative amount of ATP (no hormone added = 1), MCF7, + 10^-7 M LY 117018, -E2, 6 days",89%
same,activity at 0.01 µM,"Homo sapiens, MCF7, 144 h, read-out: relative amount of ATP (no hormone added = 1), MCF7, + 10^-8 M LY 117018, -E2, 6 days",89%
same,activity at 0.001 µM,"Homo sapiens, MCF7, 144 h, read-out: relative amount of ATP (no hormone added = 1), MCF7, + 10^-9 M LY 117018, -E2, 6 days",85%
same,inhibition of growth,"MCF7, 0.1 nM E2 and 10 nM LY 117018",inhibited down to the same level as in the absence of added hormone
same,function on growth,"MCF7, 10^-7 M LY 117018, presence of 10^-10 M E2",functions as an antagonist
same,"antagonist strength compared with Tamoxifen, growth","MCF7, presence of 0.1 nM E2",stronger antagonist than Tamoxifen
